Data from patent US20040157738A1, “Novel oxygen containing fused cyclic derivatives and herbicidal, desiccant and defoliate compositions containing them” (ISHIHARA SANGYO KAISHA, LTD., priority 2003, published 2004).

What was measured:
Type in all cases: in vivo
[1] = test system: soybean (Glycine max Merr.): GLXMA; test: Test Example 1: pre-emergence herbicidal activity (growth controlling degree); conditions: 20th to 21st day after application
Text: (§1) Upland field soil was put into a 1/170,000 ha pot, and seeds of various plants [1. barnyardgrass (Echinochloa crus-galli L.): ECHCC, 2. crabgrass (Digitaria sanguinalis L.): DIGSA, 3. green foxtail (Setaria viridis L.): SETVI, 4. redroot pigweed (Amaranthus retroflexus L.): AMARE, 5. prickly sida (Sida spinosa L.): SIDSP, 6. velvetleaf (Abutilon theophrasti): ABUTH, 7. common cocklebur (Xanthium strumarium L.): XANST, 8. rice (Oryza sativa L.): ORYSA, 9. wheat (Triticum aestivum L.): TRZAX, 10. corn (Zea mays L.): ZEAMX, 11. soybean (Glycine max Merr.): GLXMA] were sown. Then, one day after the sowing, a wettable powder or emulsifiable concentrate having the compound of the present invention formulated in accordance with a usual formulation method, was weighed so that the active ingredient would be a predetermined amount, and diluted with water in an amount of 500 L/ha. The herbicide adjusted was applied by a small size sprayer for pre-emergence treatment. On the 20th to 21st day after the application of the herbicide, the growth of the respective plants was visually observed, and the herbicidal effects were evaluated by growth controlling degrees (%) ranging from 0 (equivalent to the untreated control) to 100 (complete kill), whereby the results shown in Table 11, were obtained. Compound Nos. in Table 11 correspond to Compound Nos. in Table 1 to 7 given hereinbefore.

[2] = test system: prickly sida (Sida spinosa L.): SIDSP; test: as above; conditions: 20th to 21st day after application
Text: as §1

[3] = test system: crabgrass (Digitaria sanguinalis L.): DIGSA; test: as above; conditions: 20th to 21st day after application
Text: as §1

[4] = test system: green foxtail (Setaria viridis L.): SETVI; test: as above; conditions: 20th to 21st day after application
Text: as §1

[5] = test system: barnyardgrass (Echinochloa crus-galli L.): ECHCC; test: as above; conditions: 20th to 21st day after application
Text: as §1

[6] = test system: corn (Zea mays L.): ZEAMX; test: as above; conditions: 20th to 21st day after application
Text: as §1

[7] = test system: velvetleaf (Abutilon theophrasti): ABUTH; test: as above; conditions: 20th to 21st day after application
Text: as §1

[8] = test system: rice (Oryza sativa L.): ORYSA; test: as above; conditions: 20th to 21st day after application
Text: as §1

[9] = test system: common cocklebur (Xanthium strumarium L.): XANST; test: as above; conditions: 20th to 21st day after application
Text: as §1

[10] = test system: redroot pigweed (Amaranthus retroflexus L.): AMARE; test: as above; conditions: 20th to 21st day after application
Text: as §1

[11] = test system: common cocklebur (Xanthium strumarium L.), XANST; test: Test Example 2: post-emergence (foliage treatment) herbicidal activity (growth controlling degree); conditions: 0.2-0.6 leaf stage; for pest or weed control at 63 g/ha: 63 g a.i./ha
Text: (§2) Upland field soil was put into a 1/170,000 ha pot, and seeds of various plants were sown. Then, when the plants reached predetermined leaf stages [I. barnyardgrass (Echinochloa crus-galli L.), ECHCG: 1.8-2.4 leaf stage, 2. crabgrass (Digitaria sanguinalis L.), DIGSA: 1.5-2.2 leaf stage, 3. green foxtail (Setaria viridis L.), SETVI: 1.7-2.5 leaf stage, 4. redroot pigweed (Amaranthus retroflexus L.), AMARE: 0.1-0.3 leaf stage, 5. prickly sida (Sida spinosa L.), SIDSP: 0.3-0.5 leaf stage, 6. velvetleaf (Abutilon theophrasti), ABUTH: 0.3-0.4 leaf stage, 7. common cocklebur (Xanthium strumarium L.), XANST: 0.2-0.6 leaf stage, 8. rice (Oryza sativa L.), ORYSA: 1.6-2.2 leaf stage, 9. wheat (Triticum aestivum L.), TRZAX: 2.8 leaf stage, 10. corn (Zea mays L.), ZEAMX: 2.2-2.5 leaf stage, 11. soybean (Glycine max Merr.), GLXMA: 0.2-0.3 leaf stage], a wettable powder or emulsifiable concentrate having the compound of the present invention formulated in accordance with a usual formulation method, was weighed so that the active ingredient would be a predetermined amount, and diluted with water in an amount of 500 L/ha. To the diluted solution, 0.1%(v/v) of an agricultural spreader was added. The herbicide adjusted was applied by a small size sprayer for foliage treatment. On the […] day after the application of the herbicide, the growth of the respective plants was visually observed, and the herbicidal effects were evaluated by growth controlling degrees (%) ranging from 0 (equivalent to the untreated control) to 100 (complete kill), whereby the results shown in Table 12, were obtained. Compound Nos. in Table 12 correspond to Compound Nos. in Table 1 to 7 given hereinbefore.

[12] = test system: redroot pigweed (Amaranthus retroflexus L.), AMARE; test: as above; conditions: 0.1-0.3 leaf stage
Text: as §2

[13] = test system: crabgrass (Digitaria sanguinalis L.), DIGSA; test: as above; conditions: 1.5-2.2 leaf stage; for pest or weed control at 63 g/ha: 63 g a.i./ha
Text: as §2

[14] = test system: soybean (Glycine max Merr.), GLXMA; test: as above; conditions: 0.2-0.3 leaf stage; for pest or weed control at 63 g/ha: 63 g a.i./ha
Text: as §2

[15] = test system: barnyardgrass (Echinochloa crus-galli L.), ECHCG; test: as above; conditions: 1.8-2.4 leaf stage; for pest or weed control at 63 g/ha: 63 g a.i./ha
Text: as §2

[16] = test system: green foxtail (Setaria viridis L.), SETVI; test: as above; conditions: 1.7-2.5 leaf stage; for pest or weed control at 63 g/ha: 63 g a.i./ha
Text: as §2

[17] = test system: velvetleaf (Abutilon theophrasti), ABUTH; test: as above; conditions: 0.3-0.4 leaf stage; for pest or weed control at 63 g/ha: 63 g a.i./ha
Text: as §2

[18] = test system: corn (Zea mays L.), ZEAMX; test: as above; conditions: 2.2-2.5 leaf stage; for plant injury at 63 g/ha: 63 g a.i./ha
Text: as §2

[19] = test system: prickly sida (Sida spinosa L.), SIDSP; test: as above; conditions: 0.3-0.5 leaf stage; for pest or weed control at 63 g/ha: 63 g a.i./ha
Text: as §2

[20] = test system: rice (Oryza sativa L.), ORYSA; test: as above; conditions: 1.6-2.2 leaf stage; for plant injury at 63 g/ha: 63 g a.i./ha
Text: as §2

[21] = Digitaria sanguinalis, 504 h, read-out: growth controlling degree, DIGSP

Row | SMILES | growth controlling degree, GLXMA ([1]; 250 g a.i./ha) | growth controlling degree, SIDSP ([2]; 250 g a.i./ha) | growth controlling degree, DIGSP ([3]; 250 g a.i./ha) | growth controlling degree, SETVI ([4]; 250 g a.i./ha) | growth controlling degree, ECHCG ([5]; 250 g a.i./ha) | growth controlling degree, ZEAMX ([6]; 250 g a.i./ha) | growth controlling degree, ABUTH ([7]; 250 g a.i./ha) | growth controlling degree, ORYSA ([8]; 250 g a.i./ha) | growth controlling degree, XANST ([9]; 250 g a.i./ha) | growth controlling degree, AMARE ([10]; 250 g a.i./ha) | pest or weed control at 63 g/ha ([11]; Xanthium strumarium, 504 h) | growth controlling degree, AMARE ([12]; 63 g a.i./ha) | pest or weed control at 63 g/ha [13, 21] | pest or weed control at 63 g/ha ([14]; Glycine max, 504 h) | pest or weed control at 63 g/ha ([15]; Echinochloa crus-galli, 504 h) | pest or weed control at 63 g/ha ([16]; Setaria viridis, 504 h) | pest or weed control at 63 g/ha ([17]; Abutilon theophrasti, 504 h) | plant injury at 63 g/ha ([18]; Zea mays, 504 h) | pest or weed control at 63 g/ha ([19]; Sida spinosa, 504 h) | plant injury at 63 g/ha ([20]; Oryza sativa, 504 h) | further results
1 | Cn1nc(-c2c(F)cc(Cl)c3c2CCC(c2ccccc2)O3)c(Cl)c1OC(F)F (centres unmarked) [Compound 1-42] | 10% | 80% | 100% | 100% | 100% | 10% | 50% | 40% | 0% | 100% | 100% | 100% | 50% | 60% | 60% | 98% | 100% | 30% | 100% | 70% | –
2 | CC1CCc2c(c(Cl)cc(F)c2-c2nn(C)c(C(F)(F)F)c2Cl)O1 (centres unmarked) [Compound 1-8] | 10% | 98% | 98% | 95% | 50% | 10% | 100% | 20% | 10% | 100% | – | – | – | – | – | – | – | – | – | – | pest or weed control at 31 g/ha ([11]; Xanthium strumarium, 504 h, 31 g a.i./ha): 70%; growth controlling degree, AMARE ([12]; 31 g a.i./ha): 95%; pest or weed control at 31 g/ha ([13]; Digitaria sanguinalis, 504 h, 31 g a.i./ha, read-out: growth controlling degree, DIGSP): 10%; pest or weed control at 31 g/ha ([14]; Glycine max, 504 h, 31 g a.i./ha): 40%; pest or weed control at 31 g/ha ([15]; Echinochloa crus-galli, 504 h, 31 g a.i./ha): 0%; pest or weed control at 31 g/ha ([16]; Setaria viridis, 504 h, 31 g a.i./ha): 30%; pest or weed control at 31 g/ha ([17]; Abutilon theophrasti, 504 h, 31 g a.i./ha): 100%; plant injury at 31 g/ha ([18]; Zea mays, 504 h, 31 g a.i./ha): 50%; pest or weed control at 31 g/ha ([19]; Sida spinosa, 504 h, 31 g a.i./ha): 80%; plant injury at 31 g/ha ([20]; Oryza sativa, 504 h, 31 g a.i./ha): 40%
3 | Cn1nc(-c2c(F)cc(Cl)c3c2CCCO3)c(Cl)c1C(F)(F)F [Compound 1-2, 4-chloro-3-(8-chloro-6-fluoro-3,4-dihydro-2H-1-benzopyran-5-yl)-1-methyl-5-(trifluoromethyl)-1H-pyrazole] | – | – | – | – | – | – | – | – | – | – | 100% | 100% | 60% | 60% | 98% | 70% | 100% | 60% | 98% | 50% | growth controlling degree, GLXMA ([1]; 125 g a.i./ha): 10%; growth controlling degree, SIDSP ([2]; 125 g a.i./ha): 100%; growth controlling degree, DIGSP ([3]; 125 g a.i./ha): 100%; growth controlling degree, SETVI ([4]; 125 g a.i./ha): 100%; growth controlling degree, ECHCG ([5]; 125 g a.i./ha): 100%; growth controlling degree, ZEAMX ([6]; 125 g a.i./ha): 10%; growth controlling degree, ABUTH ([7]; 125 g a.i./ha): 100%; growth controlling degree, ORYSA ([8]; 125 g a.i./ha): 20%; growth controlling degree, XANST ([9]; 125 g a.i./ha): 100%; growth controlling degree, AMARE ([10]; 125 g a.i./ha): 100%
4 | CC1CCc2c(c(Cl)cc(F)c2-c2nn3c(c2Cl)CCCC3)O1 (centres unmarked) [Compound 1-85] | 0% | 20% | 60% | 80% | 60% | 10% | 30% | 10% | 0% | 95% | – | – | – | – | – | – | – | – | – | – | growth controlling degree, XANST ([11]; 31 g a.i./ha): 100%; growth controlling degree, AMARE ([12]; 31 g a.i./ha): 70%; growth controlling degree, DIGSP ([13]; 31 g a.i./ha): 40%; growth controlling degree, GLXMA ([14]; 31 g a.i./ha): 50%; growth controlling degree, ECHCG ([15]; 31 g a.i./ha): 70%; growth controlling degree, SETVI ([16]; 31 g a.i./ha): 80%; growth controlling degree, ABUTH ([17]; 31 g a.i./ha): 100%; growth controlling degree, ZEAMX ([18]; 31 g a.i./ha): 50%; growth controlling degree, SIDSP ([19]; 31 g a.i./ha): 95%; growth controlling degree, ORYSA ([20]; 31 g a.i./ha): 40%
